Data from ChEMBL document CHEMBL4619796, “Discovery of 3-Quinazolin-4(3H)-on-3-yl-2,N-dimethylpropanamides as Orally Active and Selective PI3Kα Inhibitors” (ACS Med Chem Lett, 2020).
pIC50: −log10 of the molar value.

Tests used:
[1] = molecular target: Phosphatidylinositol 4,5-bisphosphate 3-kinase catalytic subunit alpha isoform (Homo sapiens, UniProt P42336); assay: Inhibition of PI3Kalpha (unknown origin) using PIP2:3PS peptide as substrate preincubated for 15 mins followed by ATP addition at Km concentration and further incubated for 150 mins by ADP-Glo assay
Phosphatidylinositol 4,5-bisphosphate 3-kinase catalytic subunit alpha isoform, sequence (P42336 whole entry, canonical isoform): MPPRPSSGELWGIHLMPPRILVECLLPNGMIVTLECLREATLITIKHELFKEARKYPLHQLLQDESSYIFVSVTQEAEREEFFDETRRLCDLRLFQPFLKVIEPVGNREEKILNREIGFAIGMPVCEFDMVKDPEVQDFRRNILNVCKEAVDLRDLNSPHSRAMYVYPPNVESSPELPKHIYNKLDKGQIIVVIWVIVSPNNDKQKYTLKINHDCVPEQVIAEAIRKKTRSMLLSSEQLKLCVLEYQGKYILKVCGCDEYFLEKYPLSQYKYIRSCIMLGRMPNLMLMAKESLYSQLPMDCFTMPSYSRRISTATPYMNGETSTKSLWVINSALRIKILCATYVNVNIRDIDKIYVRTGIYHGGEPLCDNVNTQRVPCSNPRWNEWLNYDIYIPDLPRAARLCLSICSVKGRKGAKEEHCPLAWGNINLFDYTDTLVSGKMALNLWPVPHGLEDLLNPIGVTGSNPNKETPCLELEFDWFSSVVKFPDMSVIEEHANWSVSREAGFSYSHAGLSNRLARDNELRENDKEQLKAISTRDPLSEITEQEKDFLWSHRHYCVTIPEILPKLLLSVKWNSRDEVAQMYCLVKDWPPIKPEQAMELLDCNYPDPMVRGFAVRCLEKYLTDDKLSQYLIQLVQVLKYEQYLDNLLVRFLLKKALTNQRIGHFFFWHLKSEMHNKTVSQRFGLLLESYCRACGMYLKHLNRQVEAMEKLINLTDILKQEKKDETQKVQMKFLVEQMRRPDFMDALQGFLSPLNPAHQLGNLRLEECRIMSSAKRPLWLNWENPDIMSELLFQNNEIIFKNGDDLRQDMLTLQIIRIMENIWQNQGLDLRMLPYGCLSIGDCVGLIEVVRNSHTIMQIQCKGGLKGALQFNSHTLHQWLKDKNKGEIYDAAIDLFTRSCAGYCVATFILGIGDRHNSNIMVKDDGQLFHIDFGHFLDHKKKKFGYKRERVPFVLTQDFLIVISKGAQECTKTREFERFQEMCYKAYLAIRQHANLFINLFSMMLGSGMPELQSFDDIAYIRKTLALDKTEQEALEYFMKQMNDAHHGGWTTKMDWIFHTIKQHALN

Homo sapiens [2] = species: Homo sapiens; assay: (§1) Selectivity ratio of IC50 for PI3Kbeta (unknown origin) using PIP2:3PS peptide as substrate preincubated for 15 mins followed by ATP addition at Km concentration and further incubated for 120 mins by ADP-Glo assay to IC50 for PI3Kalpha (unknown origin) using PIP2:3PS peptide as substrate preincubated for 15 mins followed by ATP addition at Km concentration and further incubated for 150 mins by ADP-Glo assay
[3] = Inhibition of PI3K in human MCF7 cells assessed as reduction in AKT phosphorylation at residue S473 incubated for 2 hrs followed by insulin addition by ELISA; format: cell-based; conditions: MCF7, 2 h
Homo sapiens [4] = species: Homo sapiens; assay: as §1, with “PI3Kdelta” for “PI3Kbeta”
Homo sapiens [5] = species: Homo sapiens; assay: as §1, with “PI3Kgamma” for “PI3Kbeta”

SMILES	pIC50 [1]	Ratio IC50 (Homo sapiens [2])	pIC50 [3]	Ratio IC50 (Homo sapiens [4])	Ratio IC50 (Homo sapiens [5])
CNC(=O)[C@H](C)Cn1cnc2ccc(-c3cnc(N(C)C)c(NS(=O)(=O)c4ccc(F)cc4Cl)c3)cc2c1=O	8.08	59.5			
COc1ncc(-c2ccc3ncn(CC(F)(F)C(N)=O)c(=O)c3c2)cc1NS(=O)(=O)c1ccc(F)cc1Cl	8.57	46.6		2.69	3.15
CNC(=O)C(C)Cn1cnc2ccc(-c3cnc(OC(F)(F)F)c(NS(=O)(=O)c4ccc(F)cc4Cl)c3)cc2c1=O (racemic)		94.9	< 6.00		
COc1ncc(-c2ccc3ncn(C[C@@H](C)C(=O)N4CCOCC4)c(=O)c3c2)cc1NS(=O)(=O)c1ccc(F)cc1Cl	7.94	18.3		0.38	0.71
CNC(=O)C(C)Cn1cnc2ccc(-c3cnc(C(F)(F)F)c(NS(=O)(=O)c4ccc(F)cc4Cl)c3)cc2c1=O (racemic)	9.22	196	6.01		
CCC(Cn1cnc2ccc(-c3cnc(OC)c(NS(=O)(=O)c4ccc(F)cc4Cl)c3)cc2c1=O)C(N)=O (racemic)		19.3	7.28		
COc1ncc(-c2ccc3ncn(CC(C(N)=O)C(C)C)c(=O)c3c2)cc1NS(=O)(=O)c1ccc(F)cc1Cl (racemic)		32.6	6.90		
CCOc1ncc(-c2ccc3ncn(C[C@@H](C)C(=O)NC)c(=O)c3c2)cc1NS(=O)(=O)c1ccc(F)cc1Cl	7.86	153	6.94		
CNC(=O)[C@H](C)Cn1cnc2ccc(-c3cnc(OC4CC4)c(NS(=O)(=O)c4ccc(F)cc4Cl)c3)cc2c1=O			7.26		
CNC(=O)[C@H](C)Cn1cnc2ccc(-c3cnc(OC(C)C)c(NS(=O)(=O)c4ccc(F)cc4Cl)c3)cc2c1=O			6.41		
CCN(CC)C(=O)[C@H](C)Cn1cnc2ccc(-c3cnc(OC)c(NS(=O)(=O)c4ccc(F)cc4Cl)c3)cc2c1=O	7.59	5.97		0.63	1.04
COc1ncc(-c2ccc3ncn(CCCC(N)=O)c(=O)c3c2)cc1NS(=O)(=O)c1ccc(F)cc1Cl	8.96	30	8.03	1.91	

Second part, the compound after the results:

pIC50 [1]	Ratio IC50 (Homo sapiens [2])	pIC50 [3]	Ratio IC50 (Homo sapiens [4])	Ratio IC50 (Homo sapiens [5])	SMILES
8.21	116				COc1ncc(-c2ccc3ncn(C[C@@H](C)C(=O)NC4CC4(F)F)c(=O)c3c2)cc1NS(=O)(=O)c1ccc(F)cc1Cl (stereo partly specified)
< 6.00		< 6.00			CNC(=O)[C@H](C)Cn1cnc2ccc(-c3cnc(COC)c(NS(=O)(=O)c4ccc(F)cc4Cl)c3)cc2c1=O
8.37	146		4.52	10	CNC(=O)[C@H](C)Cn1cnc2ccc(-c3cnc(OC)c(NS(=O)(=O)c4c(C)noc4C)c3)cc2c1=O
7.71	283	< 6.00			CNC(=O)[C@H](C)Cn1cnc2ccc(-c3cnc(N)c(NS(=O)(=O)c4ccc(F)cc4Cl)c3)cc2c1=O
		< 6.00			CNC(=O)[C@H](C)Cn1cnc2ccc(-c3cnc(OC)c(NS(=O)(=O)c4cccnc4)c3)cc2c1=O
8.68	262	6.72			COc1ncc(-c2ccc3ncn(C[C@@H](C)C(=O)NC4COC4)c(=O)c3c2)cc1NS(=O)(=O)c1ccc(F)cc1Cl
8.64					CNC(=O)[C@@H](C)Cn1cnc2ccc(-c3cnc(OC)c(NS(=O)(=O)c4ccc(F)cc4Cl)c3)cc2c1=O
8.39	43.1				CNC(=O)[C@H](C)Cn1cnc2ccc(-c3cnc(OC)c(NS(=O)(=O)c4sccc4C)c3)cc2c1=O
7.71	16.6		0.78	1.06	COc1ncc(-c2ccc3ncn(C[C@@H](C)C(=O)N(C)C(C)C)c(=O)c3c2)cc1NS(=O)(=O)c1ccc(F)cc1Cl
8.00	6.62				CNC(=O)[C@H](C)Cn1cnc2ccc(-c3cnc(OC)c(NS(=O)(=O)c4ccc(Cl)c(Cl)c4)c3)cc2c1=O
